This is an account of results in patent publication US20220098203A1 (priority 2018, published 2022).

For one assay, the system named is HCT116 MTAP-/-. Put plainly: Inhibition of cellular proliferation (Cell Titer Glo), HCT116 MTAP-/-. It counts as cell-based, human. Particulars: Homo sapiens, HCT-116, 96 h, Table 5a, 4 days, read-out: 4 Day Relative Growth Inhibition (MTAP −/−). In a few lines:
(§1)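 After 4 days of compound exposure at 37 °C, starting 24 h after plating, growth of the MTAP-wildtype and MTAP-deleted HCT116 pair was measured as ATP luminescence (CellTiter-Glo). The proliferation index was signal minus no-cell blank, divided by blank-corrected 0.2% DMSO control.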
(In general: ATP-based viability assays read luminescence as a measure of living cells.)

The test system of another assay is HCT116 MTAP+/+. Kind of assay: Inhibition of cellular proliferation (Cell Titer Glo), HCT116 MTAP+/+. It counts as cell-based. Conditions: Homo sapiens, HCT-116, 96 h, Table 5a, 4 days, read-out: 4 Day Relative Growth Inhibition (MTAP +/+). In a few lines: as §1
In assay [1] the test system is SAM in HCT116 MTAP-deleted cells. Put plainly: Cellular assay of target engagement (SAM), LC-MS/MS. Particulars: Homo sapiens, HCT-116, Table 5a, 72 h, read-out: Cell 72 h SAM Inhibition (MTAP −/−). It counts as cell-based, human. The method in brief:
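Target engagement was read as intracellular SAM, measured by LC-MS/MS with d3-SAM as internal standard in methanol/acetic acid extracts. These came from MTAP-deleted HCT116 colon carcinoma cells exposed to inhibitor for 72 hrs.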

A further assay addresses T1, MAT2A homodimer (Homo sapiens, UniProt P31153).
T1 construct: inferred from the Ni sepharose purification and imidazole elution; made in house; host or cells: SF9 insect cells, recombinant baculovirus (Bac to Bac, pFASTBAC1)
Put plainly: MAT2A biochemical assay (liberated phosphate, PiColorLock Gold). Particulars: Table 5a; MAT2A biochemical assay; read-out: Enzyme Inhibition. In a few lines:
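Readout is liberated phosphate (PiColorLock Gold), stoichiometric with SAM production, quantified against a potassium phosphate standard curve. Enzyme: recombinant MAT2A homodimer from Sf9, equilibrated 60 min at 25 °C with compound before 60 min reaction with substrate mix containing 500 μM ATP and 400 μM L-methionine.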

Structures are written as SMILES.

T1 sequence (P31153 whole entry): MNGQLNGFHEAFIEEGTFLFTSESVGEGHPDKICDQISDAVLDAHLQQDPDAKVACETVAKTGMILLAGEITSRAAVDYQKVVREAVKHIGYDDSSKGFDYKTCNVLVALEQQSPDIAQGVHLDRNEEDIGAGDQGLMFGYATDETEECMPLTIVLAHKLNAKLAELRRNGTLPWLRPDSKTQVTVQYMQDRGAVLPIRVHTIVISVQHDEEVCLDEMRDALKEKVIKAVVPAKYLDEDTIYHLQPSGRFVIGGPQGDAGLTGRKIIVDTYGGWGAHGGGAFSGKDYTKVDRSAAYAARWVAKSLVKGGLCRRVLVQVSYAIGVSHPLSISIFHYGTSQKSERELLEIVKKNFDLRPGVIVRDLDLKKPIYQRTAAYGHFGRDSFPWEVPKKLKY

For `[2H]C([2H])([2H])Oc1ccc(N2C(=O)N(c3ccc4nc(C)n(C)c4c3)Cc3cnc(NCC(F)(F)F)nc32)cc1` [Example 402, 3-(1,2-dimethyl-1H-benzo[d]imidazol-6-yl)-1-(4-(methoxy-d3)phenyl)-7-((2,2,2-trifluoroethyl)amino)-3,4-dihydropyrimido[4,5-d]pyrimidin-2(1H)-one], the IC50 is less than 100 nM in the assay with HCT116 MTAP-/-, 100 to 1000 nM in the assay on HCT116 MTAP+/+, less than 100 nM in assay [1] and less than 100 nM at MAT2A homodimer.
With `Cn1cc2cc(N3Cc4ccc(OCC(F)F)nc4N(c4ccc5c(c4)ncn5C)C3=O)ccc2n1` [Example 403, 7-(2,2-difluoroethoxy)-1-(1-methyl-1H-benzo[d]imidazol-5-yl)-3-(2-methyl-2H-indazol-5-yl)-3,4-dihydropyrido[2,3-d]pyrimidin-2(1H)-one], the IC50 was 100 to 1000 nM with HCT116 MTAP-/-, more than 1000 nM in the assay on HCT116 MTAP+/+, less than 100 nM in assay [1] and less than 100 nM at MAT2A homodimer.
As for `Cn1cc2cc(N3Cc4ccc(OCC(F)F)nc4N(c4ccc5[nH]cnc5c4)C3=O)ccc2n1` [Example 404, 1-(1H-benzo[d]imidazol-5-yl)-7-(2,2-difluoroethoxy)-3-(2-methyl-2H-indazol-5-yl)-3,4-dihydropyrido[2,3-d]pyrimidin-2(1H)-one], the IC50 with HCT116 MTAP-/- was 100 to 1000 nM; in the assay with HCT116 MTAP+/+, more than 1000 nM; in assay [1] it was 100 to 1000 nM; at MAT2A homodimer, less than 100 nM.
`Cn1cc2cc(N3Cc4ccc(OCC(F)F)nc4N(c4ccc5[nH]ncc5c4)C3=O)ccc2n1` [Example 405, 7-(2,2-difluoroethoxy)-1-(1H-indazol-5-yl)-3-(2-methyl-2H-indazol-5-yl)-3,4-dihydropyrido[2,3-d]pyrimidin-2(1H)-one]: the IC50 was 100 to 1000 nM with HCT116 MTAP-/-, more than 1000 nM in the assay with HCT116 MTAP+/+, less than 100 nM in assay [1] and less than 100 nM on MAT2A homodimer.
With `COc1ccc(N2Cc3ccc(NCC(F)(F)F)nc3N(c3ccc(OC(F)F)cc3)C2=O)cc1` [Example 406, 1-(4-(difluoromethoxy)phenyl)-3-(4-methoxyphenyl)-7-((2,2,2-trifluoroethyl)amino)-3,4-dihydropyrido[2,3-d]pyrimidin-2(1H)-one], the IC50 in the assay with HCT116 MTAP-/- was 100 to 1000 nM; in the assay with HCT116 MTAP+/+ it was more than 1000 nM; in assay [1] it was 100 to 1000 nM; on MAT2A homodimer it was less than 100 nM.
For the compound `COc1ccc(N2Cc3ccc(NCC(F)(F)F)nc3N(c3ccc(Cl)cc3)C2=O)cc1` [Example 407, 1-(4-chlorophenyl)-3-(4-methoxyphenyl)-7-((2,2,2-trifluoroethyl)amino)-3,4-dihydropyrido[2,3-d]pyrimidin-2(1H)-one], the IC50 in the assay with HCT116 MTAP-/- was more than 1000 nM; with HCT116 MTAP+/+, more than 1000 nM; in assay [1], more than 1000 nM; on MAT2A homodimer, 100 to 1000 nM.
Turning to `O=C1N(c2ccc3ncsc3c2)Cc2ccc(OCC(F)F)nc2N1c1ccc(OC(F)F)cc1` [Example 408, 3-(benzo[d]thiazol-6-yl)-7-(2,2-difluoroethoxy)-1-(4-(difluoromethoxy)phenyl)-3,4-dihydropyrido[2,3-d]pyrimidin-2(1H)-one], the IC50 in the assay on HCT116 MTAP-/- is 100 to 1000 nM; in the assay with HCT116 MTAP+/+, more than 1000 nM; in assay [1] it was less than 100 nM; at MAT2A homodimer it was less than 100 nM.
In the case of `O=C1N(c2ccc3ncsc3c2)Cc2ccc(OCC(F)F)nc2N1c1ccc(Br)cc1` [Example 409, 3-(benzo[d]thiazol-6-yl)-1-(4-bromophenyl)-7-(2,2-difluoroethoxy)-3,4-dihydropyrido[2,3-d]pyrimidin-2(1H)-one], the IC50 in the assay on HCT116 MTAP-/- was less than 100 nM; in the assay with HCT116 MTAP+/+ it was 100 to 1000 nM; in assay [1], less than 100 nM; at MAT2A homodimer, less than 100 nM.
In the case of `Cn1cc2cc(N3Cc4ccc(OCC(F)F)nc4N(c4ccc5[nH]cc(C#N)c5c4)C3=O)ccc2n1` [Example 410, 5-(7-(2,2-difluoroethoxy)-3-(2-methyl-2H-indazol-5-yl)-2-oxo-3,4-dihydropyrido[2,3-d]pyrimidin-1(2H)-yl)-1H-indole-3-carbonitrile], the IC50 with HCT116 MTAP-/- was 100 to 1000 nM; in the assay on HCT116 MTAP+/+, more than 1000 nM; in assay [1] it was less than 100 nM; on MAT2A homodimer it was less than 100 nM.
On to `Cn1cc2cc(N3Cc4ccc(OCC(F)F)nc4N(c4ccc5oc(N)nc5c4)C3=O)ccc2n1` [Example 411, 1-(2-aminobenzo[d]oxazol-5-yl)-7-(2,2-difluoroethoxy)-3-(2-methyl-2H-indazol-5-yl)-3,4-dihydropyrido[2,3-d]pyrimidin-2(1H)-one], for which the IC50 with HCT116 MTAP-/- was less than 100 nM; in the assay with HCT116 MTAP+/+, more than 1000 nM; in assay [1], less than 100 nM; on MAT2A homodimer, less than 100 nM.
With `Cn1cc2cc(N3Cc4ccc(OCC(F)F)nc4N(c4ccc(NC(N)=O)cc4)C3=O)ccc2n1` [Example 412, 1-(4-(7-(2,2-difluoroethoxy)-3-(2-methyl-2H-indazol-5-yl)-2-oxo-3,4-dihydropyrido[2,3-d]pyrimidin-1(2H)-yl)phenyl)urea], the IC50 is less than 100 nM with HCT116 MTAP-/-, more than 1000 nM with HCT116 MTAP+/+, less than 100 nM in assay [1] and less than 100 nM at MAT2A homodimer.
For the compound `CCOc1cnc2c(n1)N(c1ccc(Cl)cc1)C(=O)N(c1ccc3nn(C)cc3c1)C2` [Example 413, 1-(4-chlorophenyl)-7-ethoxy-3-(2-methyl-2H-indazol-5-yl)-3,4-dihydropteridin-2(1H)-one], the IC50 in the assay with HCT116 MTAP-/- was 100 to 1000 nM; in the assay with HCT116 MTAP+/+, more than 1000 nM; in assay [1], less than 100 nM; at MAT2A homodimer, less than 100 nM.
Regarding `Cn1cc2cc(N3Cc4ncc(NCC(F)(F)F)nc4N(c4ccc(OC(F)F)cc4)C3=O)ccc2n1` [Example 414, 1-(4-(difluoromethoxy)phenyl)-3-(2-methyl-2H-indazol-5-yl)-7-((2,2,2-trifluoroethyl)amino)-3,4-dihydropteridin-2(1H)-one], the IC50 in the assay with HCT116 MTAP-/- was less than 100 nM; with HCT116 MTAP+/+, more than 1000 nM; in assay [1], less than 100 nM; at MAT2A homodimer it was less than 100 nM.
For the compound `COc1ccc(N2Cc3ncc(NCC(F)(F)F)nc3N(c3ccc(OC(F)F)cc3)C2=O)cc1` [Example 415, 1-(4-(difluoromethoxy)phenyl)-3-(4-methoxyphenyl)-7-((2,2,2-trifluoroethyl)amino)-3,4-dihydropteridin-2(1H)-one], the IC50 with HCT116 MTAP-/- is 100 to 1000 nM; in the assay on HCT116 MTAP+/+, 100 to 1000 nM; in assay [1], 100 to 1000 nM; on MAT2A homodimer, less than 100 nM.
In the case of `COc1ccc(N2Cc3ncc(NCC(F)(F)F)nc3N(c3ccc(Cl)cc3)C2=O)cc1` [Example 416, 1-(4-chlorophenyl)-3-(4-methoxyphenyl)-7-((2,2,2-trifluoroethyl)amino)-3,4-dihydropteridin-2(1H)-one], the IC50 in the assay on HCT116 MTAP-/- is 100 to 1000 nM; with HCT116 MTAP+/+, more than 1000 nM; in assay [1], 100 to 1000 nM; at MAT2A homodimer, less than 100 nM.
`[2H]C([2H])([2H])Oc1ccc(N2C(=O)N(c3ccc4nn(C)cc4c3)Cc3ncc(OCC)nc32)cc1` [Example 417, 7-ethoxy-1-(4-(methoxy-d3)phenyl)-3-(2-methyl-2H-indazol-5-yl)-3,4-dihydropteridin-2(1H)-one]: the IC50 with HCT116 MTAP-/- is 100 to 1000 nM; in the assay with HCT116 MTAP+/+, 100 to 1000 nM; in assay [1], less than 100 nM; on MAT2A homodimer, less than 100 nM.
With `[2H]C([2H])([2H])Oc1ccc(N2C(=O)N(c3ccc4nn(C)cc4c3)Cc3cnc(NCC)nc32)cc1` [Example 419, 7-(ethylamino)-1-(4-(methoxy-d3)phenyl)-3-(2-methyl-2H-indazol-5-yl)-3,4-dihydropyrimido[4,5-d]pyrimidin-2(1H)-one], the IC50 was 100 to 1000 nM in the assay on HCT116 MTAP-/-, 100 to 1000 nM in the assay with HCT116 MTAP+/+, 100 to 1000 nM in assay [1] and less than 100 nM at MAT2A homodimer.
On to `[2H]C([2H])([2H])Oc1ccc(N2C(=O)N(c3ccc4nn(C)cc4c3)Cc3cnc(NCC(F)F)nc32)cc1` [Example 420, 7-((2,2-difluoroethyl)amino)-1-(4-(methoxy-d3)phenyl)-3-(2-methyl-2H-indazol-5-yl)-3,4-dihydropyrimido[4,5-d]pyrimidin-2(1H)-one], for which the IC50 is 100 to 1000 nM with HCT116 MTAP-/-, 100 to 1000 nM in the assay with HCT116 MTAP+/+, less than 100 nM in assay [1] and less than 100 nM on MAT2A homodimer.
`[2H]C([2H])([2H])Oc1ccc(N2C(=O)N(c3ccc4nn(C)cc4c3)Cc3cnc(NCC(F)(F)F)nc32)cc1` [Example 421, 1-(4-(methoxy-d3)phenyl)-3-(2-methyl-2H-indazol-5-yl)-7-((2,2,2-trifluoroethyl)amino)-3,4-dihydropyrimido[4,5-d]pyrimidin-2(1H)-one]: the IC50 in the assay on HCT116 MTAP-/- is less than 100 nM; in the assay on HCT116 MTAP+/+, more than 1000 nM; in assay [1], less than 100 nM; at MAT2A homodimer it was less than 100 nM.
As to `COc1ccc(N2C(=O)N(c3ccc4nn(C)cc4c3)Cc3cnc(NCC(F)(F)F)nc32)cc1` [Example 422, 1-(4-methoxyphenyl)-3-(2-methyl-2H-indazol-5-yl)-7-((2,2,2-trifluoroethyl)amino)-3,4-dihydropyrimido[4,5-d]pyrimidin2(1H)-one], the IC50 with HCT116 MTAP-/- was less than 100 nM; in the assay on HCT116 MTAP+/+, more than 1000 nM; in assay [1] it was less than 100 nM; at MAT2A homodimer, less than 100 nM.
